Consider 9 molecules from patent US20050176813A1, “Novel chalcone derivatives and uses thereof” (priority 2002, published 2005).

One may read the Kd as the free concentration of one partner at which half of the binding sites on the other are occupied at equilibrium, for simple one-to-one binding.

Data set [1] deals with T1, Kv1.3 (Homo sapiens, UniProt P22001). Kind of data set: Kv1.3 channel block, estimated Kd (Table 1). It is filed as binding.
Data set [2] in a line: Cytotoxicity in vitro (remark in Table 1, summary of Table 2). It is filed as cell-based. To be noted: for Cytotoxicity (remark in Table 1): cells not given; for Cytotoxicity in-vitro (summary of Table 2): MEL and Jurkat cells. Here is the method: (§1) Jurkat E6-1 and MEL were seeded at 5×10^5 cells/ml in twelve-well plates. Drug (100 nM, 1 μM, 2.5 μM and 10 μM) was added in a final DMSO concentration of 0.1%. After 48 h of incubation, cells were harvested by sucking them off the plates. Cells were centrifuged, resuspended in 0.5 ml PBS containing 1 μg/ml propidium iodide (PI), and red fluorescence measured on a FACScan flow cytometer (Becton Dickinson) after 20 min (10^4 cells of every sample being analyzed). The percentage of dead cells was determined by their PI uptake. Incubation with 20% DMSO served as a control for setting the gates of the flow cytometer for dead cells.

Data set [3] concerns the target T1, Kv1.3. To be noted: cited from earlier work.
Another data set concerns mice. Description: Toxicity on intravenous injection into mice. It is filed as in vivo.
The target of a further data set is Kv1.5 (Homo sapiens, UniProt P22460). Description: Kv1.5 channel block, estimated Kd (Table 1). It is filed as binding.
Data set [4] has as its system human peripheral blood lymphocytes. Description: Proliferation test, [3H]-thymidine incorporation assay, anti-CD3 stimulated. It is filed as cell-based. To be noted: for EC50: Homo sapiens, Lymphocyte, anti-CD3 stimulation, 48 h, read-out: EC50, suppression of proliferation of human peripheral blood lymphocytes; for Antiproliferative potency compared with Example 1: FIG. 1. The procedure: Proliferation Test [^3H]-Thymidine Incorporation Assay
Resting peripheral blood mononuclear cells from healthy volunteers were seeded at 2×10^5 cells per well in medium (RPMI 1640 supplemented 10% fetal calf serum, 2 mM glutamine, 1 mM sodium pyruvate, 1% nonessential amino acids, 100 units/ml penicillin, 100 μg/ml streptomycin and 50 μM β-mercaptoethanol) in flat-bottom 96 well plates (final volume 200 μl). Cells pre-incubated with drug (60 min), were stimulated with 5 ng/ml anti-CD3 Ab) for 48 h. [^3H]-Thymidine (1 μCi per well) was added for the last 6 h. Cells were harvested onto glass fibre filters and radioactivity measured in a scintillation counter. All experiments were done in triplicate. Results are reported as normalised for maximum [^3H]-thymidine incorporation for controls.
A general note: Dividing cells build labelled thymidine or BrdU into new DNA.

For the next data set, the system named is Jurkat E6-1. Description: Flow cytometric measurement of cell viability (PI uptake), Jurkat T-cells. It is filed as cell-based. To be noted: 48 h. Here is the method:
(§2) Flow Cytometric Measurement of Cell Viability
as §1
(In general: In flow cytometry, cells or beads pass a laser one at a time.)

For a further data set, the target named is Kv1.7 (Homo sapiens, UniProt Q96RP8). Description: Kv1.7 channel block, estimated Kd (Table 1). It is filed as binding.
A further data set deals with MEL cells. Kind of data set: Flow cytometric measurement of cell viability (PI uptake), MEL cells. Conditions: 48 h. It is filed as cell-based. Here is the method: as §2, §1
The target in the next data set is IK (Homo sapiens, UniProt O15554). Description: IK channel inhibition (Table 1). It is filed as binding. To be noted: at 20 μM.
A further data set has as its target Kv1.1 (Homo sapiens, UniProt Q09470). Kind of data set: Kv1.1 channel block, estimated Kd (Table 1). It is filed as binding.
Setting [5] is: Kv1.3, end, read-out: Est. Kd, Kd end.
Setting [6] is: Kv1.3, peak, read-out: Est. Kd, Kd peak.
Where [7] appears, read: Kv1.1, area, read-out: Est. Kd, Kd area.
Setting [8] is: Kv1.1, end, read-out: Est. Kd, Kd end.
[9] abbreviates: Kv1.1, peak, read-out: Est. Kd, Kd peak.
Where [10] appears, read: injected intravenously, dose not stated.
Setting [11] is: Kv1.5, end, read-out: Est. Kd, Kd end.
Where [12] appears, read: Kv1.5, peak, read-out: Est. Kd, Kd peak.
Where [13] appears, read: Kv1.3, area, read-out: Est. Kd, Kd area.

Like-named read-outs stand apart in the source and are kept apart here.

Kv1.1, sequence (Q09470 whole entry): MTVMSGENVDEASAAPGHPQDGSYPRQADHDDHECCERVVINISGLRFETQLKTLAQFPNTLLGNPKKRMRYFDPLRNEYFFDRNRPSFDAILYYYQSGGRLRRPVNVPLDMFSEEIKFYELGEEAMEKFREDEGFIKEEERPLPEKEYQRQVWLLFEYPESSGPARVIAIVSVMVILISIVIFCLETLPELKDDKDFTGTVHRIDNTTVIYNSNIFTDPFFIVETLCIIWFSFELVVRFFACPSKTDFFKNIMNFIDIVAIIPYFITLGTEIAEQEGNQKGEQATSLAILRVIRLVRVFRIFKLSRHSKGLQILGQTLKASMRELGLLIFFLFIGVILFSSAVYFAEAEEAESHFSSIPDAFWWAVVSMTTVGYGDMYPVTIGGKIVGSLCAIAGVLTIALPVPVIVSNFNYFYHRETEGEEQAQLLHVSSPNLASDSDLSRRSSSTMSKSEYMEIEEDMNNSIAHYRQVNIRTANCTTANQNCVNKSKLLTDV
Kv1.5, sequence (P22460 whole entry): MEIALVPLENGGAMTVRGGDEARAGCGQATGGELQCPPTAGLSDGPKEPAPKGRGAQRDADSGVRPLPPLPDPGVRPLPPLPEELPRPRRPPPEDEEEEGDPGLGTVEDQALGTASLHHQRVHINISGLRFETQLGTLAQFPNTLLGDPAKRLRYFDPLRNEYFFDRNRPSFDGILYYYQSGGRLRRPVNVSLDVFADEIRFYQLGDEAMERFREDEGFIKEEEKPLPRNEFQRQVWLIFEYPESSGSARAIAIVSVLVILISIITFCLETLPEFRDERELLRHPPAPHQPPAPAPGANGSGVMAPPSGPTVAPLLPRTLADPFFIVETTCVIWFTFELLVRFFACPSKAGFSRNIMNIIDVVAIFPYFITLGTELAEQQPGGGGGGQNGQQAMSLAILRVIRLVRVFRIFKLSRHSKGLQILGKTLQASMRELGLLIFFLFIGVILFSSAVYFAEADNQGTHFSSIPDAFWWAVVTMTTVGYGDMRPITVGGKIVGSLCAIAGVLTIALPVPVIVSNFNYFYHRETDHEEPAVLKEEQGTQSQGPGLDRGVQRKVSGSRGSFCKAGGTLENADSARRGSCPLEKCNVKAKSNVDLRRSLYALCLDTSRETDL
Kv1.7, sequence (Q96RP8 whole entry): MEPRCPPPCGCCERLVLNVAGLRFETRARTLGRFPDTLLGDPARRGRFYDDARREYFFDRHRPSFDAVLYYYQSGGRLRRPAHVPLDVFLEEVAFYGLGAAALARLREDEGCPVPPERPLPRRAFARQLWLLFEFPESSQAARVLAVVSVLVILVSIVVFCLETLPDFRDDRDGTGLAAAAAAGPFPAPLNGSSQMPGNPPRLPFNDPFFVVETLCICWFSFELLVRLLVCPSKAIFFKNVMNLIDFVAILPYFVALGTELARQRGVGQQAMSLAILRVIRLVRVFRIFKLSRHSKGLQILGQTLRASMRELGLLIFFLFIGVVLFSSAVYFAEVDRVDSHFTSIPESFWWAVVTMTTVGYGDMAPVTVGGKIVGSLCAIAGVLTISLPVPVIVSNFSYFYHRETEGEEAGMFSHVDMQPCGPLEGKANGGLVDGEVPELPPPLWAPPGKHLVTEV
T1 sequence (P22001 whole entry): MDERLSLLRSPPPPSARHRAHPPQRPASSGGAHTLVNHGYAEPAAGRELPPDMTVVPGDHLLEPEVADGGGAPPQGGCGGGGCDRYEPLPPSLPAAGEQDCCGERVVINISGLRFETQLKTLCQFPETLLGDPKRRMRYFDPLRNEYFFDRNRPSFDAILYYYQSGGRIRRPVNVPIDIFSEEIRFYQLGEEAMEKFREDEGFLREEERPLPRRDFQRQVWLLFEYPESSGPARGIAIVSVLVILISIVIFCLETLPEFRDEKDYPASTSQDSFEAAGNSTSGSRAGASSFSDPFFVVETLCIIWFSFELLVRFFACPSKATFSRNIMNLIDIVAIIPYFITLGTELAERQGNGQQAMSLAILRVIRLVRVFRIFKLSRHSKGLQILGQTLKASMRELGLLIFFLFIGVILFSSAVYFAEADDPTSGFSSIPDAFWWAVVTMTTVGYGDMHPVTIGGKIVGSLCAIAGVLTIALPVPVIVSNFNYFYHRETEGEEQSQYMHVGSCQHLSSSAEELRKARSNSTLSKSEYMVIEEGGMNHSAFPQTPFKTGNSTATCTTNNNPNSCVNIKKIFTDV

With `COc1c(C(=O)/C=C/c2ccc(C)s2)c(O)c(OC)c2occc12` [Example 55], the Kd on Kv1.3 [1] (setting [5]) is 0.5 µM; at Kv1.3 [1] (setting [6]), 3 µM. Moreover, the “Cytotoxicity (remark in Table 1)” value in [2] is on record as “Cytotoxic Mp 103 Orange prisms”.

With `COc1c2occc2cc2ccc(=O)oc12` [8-Methoxypsoralen], the “Blocking activity on the Kv1.3 channel” value on Kv1.3 [3] (background) is reported as “blocking activity”.

As to `COc1c(C(=O)/C=C/c2cccs2)c(O)c(OC)c2occc12` [Example 53], the Kd was 0.3 µM at Kv1.3 [1] (setting [5]) and 1.75 µM at Kv1.3 [1] (setting [6]). In data set [2], the “Cytotoxicity (remark in Table 1)” value was “Cytotoxic Mp 129 Red needles”.

Take `COc1c(C(=O)/C=C/c2ccccc2)c(O)c(OC)c2occc12` [Example 1]: in the data set with mice (30 uM injected intravenously), the Toxicity in mice result is listed as “non-toxic”. In addition, at Kv1.5 (Kv1.3 over Kv1.5), the “Selectivity over Kv1.5” value is reported as “Cinnamon needles. Selectivity over Kv1.5 is 25-fold. Mp 125-126”. Besides, the Kd was 0.12 µM at Kv1.3 [1] (setting [5]); 0.75 µM at Kv1.3 [1] (setting [6]); 0.4 µM on Kv1.3 [1] (T-lymphocytes, read-out: Kd (dissociation constant), block of Kv1.3 voltage gated potassium channel in T-lymphocytes); 5 µM at Kv1.7 (Kv1.7, end, read-out: Est. Kd, Kd end); 25 µM on Kv1.7 (Kv1.7, peak, read-out: Est. Kd, Kd peak); 1.2 µM at Kv1.1 (setting [7]). Further, the results for the Kd at Kv1.1 (setting [8]) and on Kv1.1 (setting [9]) were 0.7 µM and 12 µM, respectively. Also, in [2], the “Cytotoxicity in-vitro (summary of Table 2)” value (shortened to “Cytotoxicity in-vitro”) is “non-cytotoxic”. In [4], the EC50 was determined as 1 µM. The “percentage of dead cells (PI uptake)” value is listed as 3.02% in the data set on Jurkat E6-1 (100 nM); 1.47% with Jurkat E6-1 (1 μM); 1.78% in the data set on Jurkat E6-1 (2.5 μM); 8.10% in the data set with Jurkat E6-1 (10 μM); 4.95% with MEL cells (100 nM); 6.21% in the data set with MEL cells (1 μM). For the same molecule, the figures for the “percentage of dead cells (PI uptake)” value with MEL cells (2.5 μM) and with MEL cells (10 μM) were 6.70% and 5.88%, respectively. In addition, on Kv1.7 (Kv1.7), the “Block phasic or not” value is “phasic”. Besides, the IK inhibition entry at IK is recorded as “no inhibition”.

Take `COc1c(C(C)=O)c(O)c(OC)c2occc12` [khellinone]: the “Blocking activity on the Kv1.3 channel” value on Kv1.3 [3] is recorded as “blocking activity”.

Regarding `COc1c(C(=O)/C=C/c2cccc(O)c2)c(O)c(OC)c2occc12` [Example 18], the Toxicity in mice result in the data set on mice (setting [10]) is recorded as “non-toxic”. Further, the Kd at Kv1.5 (setting [11]) was 10 µM; at Kv1.5 (setting [12]), 16 µM; on Kv1.3 [1] (setting [13]), 0.7 µM; on Kv1.3 [1] (setting [5]), 0.25 µM; on Kv1.3 [1] (setting [6]) it was 5 µM; on Kv1.7 (Kv1.7, time-independent, read-out: Est. Kd), 50 µM. The figures for the Kd on Kv1.1 (setting [7]), on Kv1.1 (setting [8]) and on Kv1.1 (setting [9]) were 1.7 µM, 1 µM and 15 µM, respectively. The “Cytotoxicity in-vitro” value in [2] is listed as “non-cytotoxic”. Besides, the “Antiproliferative potency compared with Example 1” value in data set [4] was “even more potently antiproliferative”. For the same molecule, the EC50 in data set [4] amounted to 0.5 µM. For the same molecule, the “percentage of dead cells (PI uptake)” value with Jurkat E6-1 (100 nM) is recorded as 2.57%; in the data set with Jurkat E6-1 (1 μM), 2.22%; in the data set on Jurkat E6-1 (2.5 μM) it was 2.59%; with Jurkat E6-1 (10 μM), 4.70%; with MEL cells (100 nM), 6.89%; in the data set on MEL cells (1 μM), 3.60%. Moreover, the “percentage of dead cells (PI uptake)” value amounted to 6.98% in the data set with MEL cells (2.5 μM) and 4.41% in the data set with MEL cells (10 μM).

Consider `COc1cccc(/C=C/C(=O)c2c(O)c(OC)c3occc3c2OC)c1` (single isomer, unassigned) [Example 24], for which the Toxicity in mice entry with mice (setting [10]) is reported as “non-toxic”. Further, the Kd was 6 µM at Kv1.5 (setting [11]); 36 µM on Kv1.5 (setting [12]); 0.8 µM at Kv1.3 [1] (setting [13]); 0.25 to 0.3 µM at Kv1.3 [1] (setting [5]); 0.9 to 1.1 µM at Kv1.3 [1] (setting [6]). In addition, the “Cytotoxicity in-vitro” value in data set [2] is on record as “non-cytotoxic”. Besides, the “Antiproliferative potency compared with Example 1” value in data set [4] was “even more potently antiproliferative”. The EC50 in data set [4] was found to be 1 µM. Besides, the “percentage of dead cells (PI uptake)” value with Jurkat E6-1 (100 nM) is reported as 2.41%; in the data set with Jurkat E6-1 (1 μM), 2.81%; in the data set with Jurkat E6-1 (2.5 μM) it was 2.31%; in the data set with Jurkat E6-1 (10 μM), 9.8%; with MEL cells (100 nM) it was 3.53%; in the data set on MEL cells (1 μM), 3.73%. Also, the “percentage of dead cells (PI uptake)” value in the data set on MEL cells (2.5 μM) is recorded as 5.26%; with MEL cells (10 μM), 3.00%.

For the molecule `COc1c(C(=O)/C=C/c2cc(Br)cs2)c(O)c(OC)c2occc12` [Example 54], the Kd at Kv1.3 [1] (setting [5]) was 0.25 µM; on Kv1.3 [1] (setting [6]), 4 µM. For the same molecule, the “Cytotoxicity (remark in Table 1)” value in [2] is on record as “Cytotoxic Mp 139 Brown needles”.

On to `COc1c(C(=O)/C=C/c2ccc(C)cc2)c(O)c(OC)c2occc12` [Example 23], for which the Kd on Kv1.3 [1] (setting [5]) is 0.1 µM; on Kv1.3 [1] (setting [6]) it was 1.5 µM. Further, in data set [4], the EC50 stood at 1.5 µM.
